Legend:
[1] = refractive index (Na D-line) (dimensionless); xn = mol fraction of the nth substance listed; details: 101 kPa, Liquid, Standard Abbe refractometry
[2] = xn = mol fraction of the nth substance listed; details: 101 kPa, Liquid; for speed of sound: Frequency=3 MHz, Sing-around technique in a fixed-path interferometer; for mass density: Vibrating tube method

CCCCCCC(=O)O [heptanoic acid] + CCCCC(=O)O
Details	mass density, [2] [kg/m3]	refractive index, [1]	speed of sound, [2] [m/s]
293.15 K, x1 = 0.0641	937.59	1.4099	1238.8
293.15 K, x1 = 0.1207	936.02	1.4111	1242.9
293.15 K, x1 = 0.2317	933.14	1.41293	1250.6
293.15 K, x1 = 0.3413	930.46	1.41469	1257.9
293.15 K, x1 = 0.4383	928.25	1.41617	1264.1
293.15 K, x1 = 0.5402	926.08	1.4176	1270.3
293.15 K, x1 = 0.6442	923.97	1.41903	1276.3
293.15 K, x1 = 0.7342	922.25	1.42021	1281.4
293.15 K, x1 = 0.8259	920.58	1.42135	1286.4
293.15 K, x1 = 0.9173	919	1.42244	1291.2
293.15 K, x1 = 0.962	918.26	1.42297	1293.4
293.15 K, x1 = 1	917.65	1.42336	1295.4
298.15 K, x1 = 0.0641	933.06	1.40789	1220.8
298.15 K, x1 = 0.1207	931.51	1.40904	1225
298.15 K, x1 = 0.2317	928.68	1.41092	1232.8
298.15 K, x1 = 0.3413	926.05	1.41267	1240.1
298.15 K, x1 = 0.4383	923.88	1.41413	1246.3
298.15 K, x1 = 0.5402	921.74	1.41562	1252.5
298.15 K, x1 = 0.6442	919.68	1.41705	1258.6
298.15 K, x1 = 0.7342	917.98	1.4182	1263.7
298.15 K, x1 = 0.8259	916.35	1.41936	1268.7
298.15 K, x1 = 0.9173	914.79	1.42048	1273.5
298.15 K, x1 = 0.962	914.07	1.42099	1275.8
298.15 K, x1 = 1	913.47	1.42138	1277.7
303.15 K, x1 = 0.0641	928.52	1.40585	1202.7
303.15 K, x1 = 0.1207	926.99	1.40698	1206.9
303.15 K, x1 = 0.2317	924.22	1.40886	1214.7
303.15 K, x1 = 0.3413	921.64	1.41062	1222.1
303.15 K, x1 = 0.4383	919.51	1.41208	1228.3
303.15 K, x1 = 0.5402	917.4	1.41356	1234.6
303.15 K, x1 = 0.6442	915.38	1.41498	1240.7
303.15 K, x1 = 0.7342	913.71	1.4162	1245.8
303.15 K, x1 = 0.8259	912.11	1.41733	1250.8
303.15 K, x1 = 0.9173	910.58	1.41842	1255.7
303.15 K, x1 = 0.962	909.87	1.41896	1257.9
303.15 K, x1 = 1	909.29	1.41935	1259.9
308.15 K, x1 = 0.0641	923.98	1.40383	1184.8
308.15 K, x1 = 0.1207	922.48	1.40496	1189
308.15 K, x1 = 0.2317	919.75	1.40684	1196.9
308.15 K, x1 = 0.3413	917.23	1.40857	1204.2
308.15 K, x1 = 0.4383	915.14	1.41004	1210.5
308.15 K, x1 = 0.5402	913.07	1.41151	1216.8
308.15 K, x1 = 0.6442	911.08	1.41294	1223
308.15 K, x1 = 0.7342	909.45	1.41413	1228.1
308.15 K, x1 = 0.8259	907.87	1.41531	1233.1
308.15 K, x1 = 0.9173	906.38	1.41643	1238
308.15 K, x1 = 0.962	905.68	1.41695	1240.3
308.15 K, x1 = 1	905.11	1.41733	1242.2
313.15 K, x1 = 0.0641	919.44	1.40175	1167
313.15 K, x1 = 0.1207	917.97	1.40283	1171.2
313.15 K, x1 = 0.2317	915.29	1.40471	1179.1
313.15 K, x1 = 0.3413	912.82	1.40649	1186.6
313.15 K, x1 = 0.4383	910.77	1.40796	1192.9
313.15 K, x1 = 0.5402	908.74	1.40944	1199.2
313.15 K, x1 = 0.6442	906.79	1.41086	1205.4
313.15 K, x1 = 0.7342	905.19	1.41209	1210.5
313.15 K, x1 = 0.8259	903.64	1.41324	1215.6
313.15 K, x1 = 0.9173	902.17	1.41437	1220.4
313.15 K, x1 = 0.962	901.49	1.4149	1222.7
313.15 K, x1 = 1	900.94	1.4153	1224.7

CCCCC(=O)O [pentanoic acid] + CCCC(=O)O
Details	mass density, [2] [kg/m3]	refractive index, [1]	speed of sound, [2] [m/s]
293.15 K, x2 = 0	939.41	1.4084	1234
293.15 K, x2 = 0.0472	940.14	1.40813	1232.3
293.15 K, x2 = 0.0938	940.86	1.4077	1230.6
293.15 K, x2 = 0.1944	942.46	1.40676	1226.9
293.15 K, x2 = 0.2928	944.08	1.40581	1223.3
293.15 K, x2 = 0.3946	945.82	1.40481	1219.5
293.15 K, x2 = 0.4922	947.56	1.40383	1215.8
293.15 K, x2 = 0.5938	949.45	1.40278	1211.9
293.15 K, x2 = 0.6929	951.38	1.40174	1208
293.15 K, x2 = 0.7973	953.48	1.4006	1203.8
293.15 K, x2 = 0.895	955.52	1.39949	1199.9
298.15 K, x2 = 0	934.85	1.40641	1216
298.15 K, x2 = 0.0472	935.55	1.40607	1214.3
298.15 K, x2 = 0.0938	936.26	1.40563	1212.6
298.15 K, x2 = 0.1944	937.82	1.40469	1208.9
298.15 K, x2 = 0.2928	939.4	1.40374	1205.2
298.15 K, x2 = 0.3946	941.11	1.40274	1201.4
298.15 K, x2 = 0.4922	942.81	1.40175	1197.6
298.15 K, x2 = 0.5938	944.66	1.4007	1193.6
298.15 K, x2 = 0.6929	946.54	1.39965	1189.7
298.15 K, x2 = 0.7973	948.6	1.3985	1185.4
298.15 K, x2 = 0.895	950.6	1.39744	1181.4
303.15 K, x2 = 0	930.29	1.40438	1197.9
303.15 K, x2 = 0.0472	930.96	1.40399	1196.2
303.15 K, x2 = 0.0938	931.65	1.40355	1194.5
303.15 K, x2 = 0.1944	933.18	1.4026	1190.7
303.15 K, x2 = 0.2928	934.73	1.40164	1187
303.15 K, x2 = 0.3946	936.39	1.40063	1183.1
303.15 K, x2 = 0.4922	938.05	1.39964	1179.3
303.15 K, x2 = 0.5938	939.87	1.39857	1175.2
303.15 K, x2 = 0.6929	941.71	1.39751	1171.2
303.15 K, x2 = 0.7973	943.73	1.39639	1166.9
303.15 K, x2 = 0.895	945.68	1.39533	1162.8
308.15 K, x2 = 0	925.73	1.40234	1179.9
308.15 K, x2 = 0.0472	926.37	1.4019	1178.2
308.15 K, x2 = 0.0938	927.04	1.40146	1176.5
308.15 K, x2 = 0.1944	928.53	1.40051	1172.7
308.15 K, x2 = 0.2928	930.05	1.39955	1168.9
308.15 K, x2 = 0.3946	931.68	1.39853	1164.9
308.15 K, x2 = 0.4922	933.3	1.39753	1161
308.15 K, x2 = 0.5938	935.08	1.39646	1156.9
308.15 K, x2 = 0.6929	936.87	1.39541	1152.9
308.15 K, x2 = 0.7973	938.85	1.39431	1148.5
308.15 K, x2 = 0.895	940.76	1.39326	1144.3
313.15 K, x2 = 0	921.16	1.4003	1162.1
313.15 K, x2 = 0.0472	921.78	1.39983	1160.4
313.15 K, x2 = 0.0938	922.44	1.39937	1158.6
313.15 K, x2 = 0.1944	923.89	1.39841	1154.8
313.15 K, x2 = 0.2928	925.37	1.39745	1151
313.15 K, x2 = 0.3946	926.97	1.39642	1146.9
313.15 K, x2 = 0.4922	928.55	1.39542	1143
313.15 K, x2 = 0.5938	930.29	1.39437	1138.9
313.15 K, x2 = 0.6929	932.04	1.39332	1134.7
313.15 K, x2 = 0.7973	933.98	1.39222	1130.2
313.15 K, x2 = 0.895	935.84	1.39118	1126

Source: the NIST ThermoML archive (doi:10.1016/j.tca.2014.06.031)
